Data on one molecule can be found in patent publication US11078496B2, “System for F-box hormone receptor regulated protein expression in mammalian cells” (ICAHN SCHOOL OF MEDICINE AT MOUNT SINAI, priority 2016, dated 2021).

The test system of the assay is dnMAML1-NLS-GFP-OsJAZ^33 (dnM1-GFP-J). Briefly: Coronatine-dependent degradation of dnM1-GFP-J in hESCs (fluorescence microscopy). Format: cell-based, human. The note with it: hESCs harboring pRAIDRS NICD-A and pJAZ dnM1-GFP-J, 50 μM coronatine, 1 day. The method, then: FIGS. 14A-14C illustrate a dual switch for dissection of NOTCH1 function in hESCs. H9 hESCs were infected with pRAIDRS harboring an shRNA targeting the full-length NOTCH1 receptor and an NICD-AID^47 CDS (“NICD-A”). As a control, cells were infected with pRAIDRS NLS-GFP-AID^47 (“GFP-A”). Cells were maintained with 250 μM auxin to prevent NICD-A accumulation. Following selection and isolation of colonies with ESC morphology, cells were infected with pJAZ dnMAML1-NLS-GFP-OsJAZ^33 (“dnM1-GFP-J”) or pJAZ NLS-GFP-OsJAZ^33 (“GFP-J”) as control and post-selection colonies were expanded. FIG. 14A is a western blot analysis of pRAIDRS GFP-A and NICD-A hESCs maintained in the presence of 250 μM auxin (“IAA”), washed and incubated for 4 h in the presence (+) or absence (−) of auxin. […] Dashed lines mark colony borders. […] Dashed lines indicate instances where coronatine-mediated dnM1-GFP-J degradation restored NICD-A-dependent activity by at least twofold. […] See also FIGS. 13A-13E and 15.
In mice, NOTCH was also implicated in trophectoderm formation (Rayon et al., “Notch and Hippo Converge on Cdx2 to Specify the Trophectoderm Lineage in the Mouse Blastocyst,” Dev. Cell 30:410-422 (2014), which is hereby incorporated by reference in its entirety). […]

Molecules are shown by their SMILES.

As for `CC[C@H]1C=C(C(=O)N[C@@]2(C(=O)O)C[C@@H]2CC)[C@H]2CCC(=O)[C@H]2C1` [coronatine, Coronatine], the “degradation of dnM1-GFP-J” value is “effectively induced degradation”.
